Assay results published in patent US20160213651A1, “PIDOTIMOD FOR USE IN THE TREATMENT OF INFLAMMATION-ASSOCIATED DISEASES” (POLICHEM S.A., priority 2013, published 2016).
Square brackets hold non-standard residues; d marks the D form. Peptide text beside a SMILES is read from it. pGlu = O=C1CC[C@@H](C(=O)O)N1; Thz = O=C(O)[C@@H]1CSCN1

How the values were obtained:
NLRP12 [1] = assay: NLRP12 mRNA expression in MonoMac 6 cells (transcriptional array, quantitative Real-Time PCR); assay type: cell-based, human
Method: (§1) 1. Culture of human monocytes. Peripheral blood mononuclear cells (PBMCs) were obtained by peripheral blood (freshly drawn or buffy coats). Monocytes were then derived from PBMCs by positive selection using anti-CD14 paramagnetic beads (Miltenyi Biotec) as described (Marini et al., 2008). Upon purification, cells were shortly cultured (from 24 to 72 hours) in complete culture medium (RPMI 1640 complemented with 10% of fetal bovine serum certified low endotoxin).
(§2) 2. Cell treatment with Pidotimod. PBMCs, purified primary human monocytes or MonoMac 6were treated with Pidotimod, at concentrations ranging from 1 to 25 μg/mL and, for different times. In some experiments, after 6 to 48 hours from the beginning of Pidotimod treatment, cells were washed and cultured for 6-24 hours in the presence and absence of TLR 1-9 optimal ligands (Human TLR1-9 Agonist kit, Invivogen).
(§3) 3. Evaluation of gene expression involved in Pidotimod activity. Upon stimulation, cells were harvested and total RNA was extracted using the RNAeasy mini kit (Qiagen). RNA was then retro-transcribed and subjected to amplification. Real-time PCR was performed using the “Human “RT2 Profiler PCR microarray kit” according to the manufacturer's protocol (SABbiosciences, Qiagen). […]
(§4) 5. […] Data obtained were analysed using the 2^−ΔΔCt method using Relative Quantification Study software (Applied Biosystems). […]

NLRP12 [2] = assay: NLRP12 mRNA expression in primary monocytes from peripheral blood of healthy donors; assay type: cell-based, human; conditions: primary monocytes from 8 different subjects, 25 and 5 μg/ml (FIG. 2)
Method: as §1, §2, §3, §4

NLRP12 [3] = assay: NLRP12 protein expression in Monomac6 by immunoprecipitation and immunoblotting; assay type: cell-based, human; conditions: Monomac6, 5 μg/ml, 36 hours, immunoblotting upon immunoprecipitation (FIG. 3)
Method: as §1, §2
(§5) 4. Immunoblot and immunoprecipitation assays. Cell lysates were prepared in lysis buffer containing a protease inhibitor cocktail (Roche). […] To detect the presence of cytoplasmic NLRP12, a first incubation with the goat polyclonal antibody to NLRP12 (Santa Cruz Biotechnology) was followed by the addiction of donkey-anti-goat-HRP secondary antibody. […]

primary human monocytes = assay: mRNA of inflammatory mediators in primary human monocytes treated with TLR agonists; assay type: cell-based
Method: as §1, §2
5. Transcription array. The Pidotimod ability to reduce the inflammation induced by potent danger signals as LPS or other PAMPs was highlighted by evaluating the level of mRNA specific for effector inflammatory molecules. To this scope total RNA was extracted using the semiautomated extraction system NucliSens Easymag (Biomerieux). […] Data obtained were analysed using the 2^−ΔΔCt method using Relative Quantification Study software (Applied Biosystems). […]

[4] = tested on: PBMCs and/or purified monocytes; assay: ELISA quantification of inflammatory molecules in cell supernatants after TLR stimulation; assay type: cell-based, human
Method: as §1, §2
6. ELISA for the quantification of proinflammatory molecules induced by TLR stimulation. The increase of cytokine synthesis is the signal of cellular response to TLR stimulation. Pidotimod disciplines the extent of inflammation by upregulating the expression of NLRP12 which reduces the amplification of inflammatory signals triggered by TLR activation. […] The presence of IL-6, IL-8, TNF-α, MCP-1 and IL-1β was quantified in the cultural medium through ELISA assays (Endogen).

NLRP12 [5] = assay: NLRP12 downregulation induced in monocytes by TLR stimulation, Pidotimod pretreatment; assay type: cell-based, human; conditions: monocytes pretreated with Pidotimod
Method: as §1, §2, §5, §4

With `O=C1CC[C@@H](C(=O)N2CSC[C@H]2C(=O)O)N1` [Pidotimod, (4R)-3-(5-oxo-L-prolyl)-1,3-thiazolidine-4-carboxylic acid] ([pGlu]-[Thz]-OH) the “NLRP12 mRNA increase as compared to unstimulated cells” value (NLRP12 [1]; 25 μg/ml, 16 hours of treatment, gene array confirmed by Real-Time PCR) was “two-fold”, the “time of peak of increase in NLRP12 expression” value (NLRP12 [1]; 25 and 5 μg/ml, tested 6, 16, 24, 48 hours (FIG. 1)) was 24 h and the “NLRP12 mRNA expression vs non-treated cells” value (NLRP12 [2]) was “increase of NLRP12 mRNA expression”. For the same compound, the “NLRP12 protein expression level vs untreated cells” value (NLRP12 [3]) was “higher amount of NLRP12 protein”, the “IL-6, IL-8, TNF-α and IL-1β mRNA induced by TLR agonists” value (primary human monocytes) was “controls the production of these mediators at the transcriptional level” and the “levels of specific MCP-1 (mRNA) induced by TLR agonists” value (primary human monocytes; 8 samples from 8 donors (FIG. 4)) was “consistently diminished”. For the same compound, the “inflammatory molecules in cell supernatants by ELISA” value ([4]; purified monocytes, TLR stimulation) was “confirmed”, the “inflammatory molecules by ELISA in total PBMC” value ([4]; total PBMC instead of purified monocytes) was “reproducible” and the “NLRP12 expression at messenger level after TLR stimulation” value (NLRP12 [5]; representative TLR with optimal agonist (FIG. 5 left panel)) was “able to counteract the decrement of NLRP12 expression”. For the same compound, the “NLRP12 expression at protein level after TLR stimulation” value (NLRP12 [5]; representative TLR with optimal agonist (FIG. 5 right panel)) was “able to counteract the decrement of NLRP12 expression”.
